The test system of the test is grass silage. Put plainly: Aerobic stability of grass silage (PVC silos, method of Honig). The arrangement: species or system ryegrass. On the procedure:
Second cut ryegrass was harvested at PLNC. The grass was determined to have an approximate dry matter of 35%.
Inoculation: Individual strains were supplied as fresh grown overnight culture. Cultures were adjusted to a standard concentration of 5.0×10^7 CFU/mL and applied using a syringe at a rate of 2.2 mL/kg of forage. The application rate for all strains was 1.1×10^5 CFU/g forage. Propionic acid (88%) was applied at a rate of 4.4 mL/kg fresh forage.
PVC Silos: PVC silos were filled at a packing density of 0.288 kg DM/silo (100 kg DM/m^3); approximately 0.82-0.95 kg/silo. Silos were air infused for 24 hours on days 28 and 42, and opened after 50-60 days of ensiling.
Aerobic Stability: The method of Honig (Proc. Of the Eurobac. Conf., P. Lingvall and S. Lindgren (ed.) (12-16 Aug. 1986) Swed. Univ. of Agric. Sci. Grass and Forage Report No. 3-1990. Pp. 76-81. Uppsala, Sweden.) was used for measuring aerobic stability (see Table 2). ROT is defined as the time, in hours, for the silage to heat 1.7° C. after exposure to air. Cumm_DD is the integral value of the area between the time ROT is attained and the end of the experiment. Aerobic dry matter loss (% dry matter) was determined relating the increase in temperature and the time to energy losses occurring in the silage.

As for `CCC(=O)O` [Propionic Acid, Propionic acid], the “Aerobic deterioration versus control grass silages” value is “significantly less aerobic deterioration than the control”.
